These results are taken from the supplement of paper PMC10307832.

Common to all, as to assay: relative viability (nuclei count vs DMSO), 5 days (fraction); higher = more cells survive
Compound in test [1]: COc1cc2ncn(-c3cc(OCc4ccccc4C(F)(F)F)c(C(N)=O)s3)c2cc1OC + C[C@]1(O)C[C@@H](c2nc(-c3ccc4ccc(-c5ccccc5)nc4c3)c3c(N)nccn32)C1 [Linsitinib] (partner 1 µM)
In short, it runs like this: (§1)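 Medians of duplicate plates are given as relative viability. That measure is the nuclei count in treated wells divided by the count in vehicle wells. Counts were taken on 4× images of lung cancer cell lines in 1536-well plates, 5 days after pin-tool dosing the day after seeding with one drug alone or a fixed anchor-drug dose plus five library-drug doses (not always all listed) in √10 steps.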

Compound in test [2]: COc1cc2ncn(-c3cc(OCc4ccccc4C(F)(F)F)c(C(N)=O)s3)c2cc1OC + Cc1cc(Nc2cc(N3CCN(C)CC3)nc(Sc3ccc(NC(=O)C4CC4)cc3)n2)n[nH]1 [Tozasertib] (partner 0.1 µM)
A digest of the protocol: as §1

Compound in test [3]: COc1cc2ncn(-c3cc(OCc4ccccc4C(F)(F)F)c(C(N)=O)s3)c2cc1OC + COc1cccc2cc(-c3nc([C@H]4CC[C@H](C(=O)O)CC4)n4ncnc(N)c34)[nH]c12 [OSI-027] (partner 0.5 µM)
In short, it runs like this: as §1

Compound in test [4]: COc1cc2ncn(-c3cc(OCc4ccccc4C(F)(F)F)c(C(N)=O)s3)c2cc1OC + C[C@@H](Oc1cc(-c2cnn(C3CCNCC3)c2)cnc1N)c1c(Cl)ccc(F)c1Cl [Crizotinib] (partner 1 µM)
In short, it runs like this: as §1

Turning to NCI-H441, the relative viability stood at 0.395 in test [1] (first compound 0.05 µM); 0.315 in test [1] (first compound 0.1581 µM); 0.205 in test [1] (first compound 0.5 µM); 0.152 in test [1] (first compound 1.581 µM); 0.149 in test [1] (first compound 5 µM); 0.71 in test [2] (first compound 0.05 µM). Besides, the relative viability in test [2] (first compound 0.1581 µM) was 0.481; in test [2] (first compound 0.5 µM), 0.232; in test [2] (first compound 1.581 µM), 0.236; in test [2] (first compound 5 µM), 0.336; in test [3] (first compound 0.05 µM), 0.553; in test [3] (first compound 0.1581 µM), 0.495. In addition, the relative viability was determined as 0.2 in test [3] (first compound 0.5 µM); 0.245 in test [3] (first compound 1.581 µM); 0.237 in test [3] (first compound 5 µM); 0.634 in test [4] (first compound 0.05 µM); 0.617 in test [4] (first compound 0.1581 µM); 0.287 in test [4] (first compound 0.5 µM). The relative viability in test [4] (first compound 1.581 µM) turned out to be 0.152; in test [4] (first compound 5 µM) it was 0.218.
On to NCI-H1793, for which the relative viability in test [1] (first compound 0.05 µM) turned out to be 0.928; in test [1] (first compound 0.1581 µM), 0.847; in test [1] (first compound 0.5 µM), 0.763; in test [1] (first compound 1.581 µM), 0.248; in test [1] (first compound 5 µM) it was 0.145; in test [2] (first compound 0.05 µM), 0.34. In addition, the relative viability in test [2] (first compound 0.1581 µM) was 0.296; in test [2] (first compound 0.5 µM), 0.292; in test [2] (first compound 1.581 µM) it was 0.239; in test [2] (first compound 5 µM), 0.191; in test [3] (first compound 0.05 µM), 0.3; in test [3] (first compound 0.1581 µM) it was 0.299. The relative viability in test [3] (first compound 0.5 µM) stood at 0.161; in test [3] (first compound 1.581 µM), 0.144; in test [3] (first compound 5 µM) it was 0.116.
Consider NCI-H23, for which the relative viability in test [1] (first compound 0.05 µM) was 0.655; in test [1] (first compound 0.1581 µM) it was 0.371; in test [1] (first compound 0.5 µM), 0.274; in test [1] (first compound 1.581 µM), 0.113; in test [1] (first compound 5 µM), 0.131; in test [2] (first compound 0.05 µM), 0.349. Besides, the relative viability in test [2] (first compound 0.1581 µM) was 0.269; in test [2] (first compound 0.5 µM), 0.218; in test [2] (first compound 1.581 µM), 0.166; in test [2] (first compound 5 µM) it was 0.13; in test [3] (first compound 0.05 µM), 0.638; in test [3] (first compound 0.1581 µM) it was 0.561. Further, the relative viability in test [3] (first compound 0.5 µM) was found to be 0.316; in test [3] (first compound 1.581 µM), 0.117; in test [3] (first compound 5 µM), 0.0957; in test [4] (first compound 0.05 µM), 0.754; in test [4] (first compound 0.1581 µM), 0.362; in test [4] (first compound 0.5 µM) it was 0.258. In addition, the results for the relative viability in test [4] (first compound 1.581 µM) and in test [4] (first compound 5 µM) were 0.127 and 0.121, respectively.
Take HARA: the relative viability in test [1] (first compound 0.05 µM) turned out to be 0.958; in test [1] (first compound 0.1581 µM), 0.842; in test [1] (first compound 0.5 µM), 0.834; in test [1] (first compound 1.581 µM), 0.208; in test [1] (first compound 5 µM), 0.0806; in test [2] (first compound 0.05 µM), 0.091. Also, the relative viability came out at 0.117 in test [2] (first compound 0.1581 µM); 0.117 in test [2] (first compound 0.5 µM); 0.111 in test [2] (first compound 1.581 µM); 0.0871 in test [2] (first compound 5 µM); 0.445 in test [3] (first compound 0.05 µM); 0.504 in test [3] (first compound 0.1581 µM). For the same cell line, the relative viability in test [3] (first compound 0.5 µM) was found to be 0.244; in test [3] (first compound 1.581 µM), 0.0613; in test [3] (first compound 5 µM), 0.0396; in test [4] (first compound 0.05 µM) it was 1.18; in test [4] (first compound 0.1581 µM), 0.981; in test [4] (first compound 0.5 µM) it was 0.786. In addition, the relative viability in test [4] (first compound 1.581 µM) was 0.275; in test [4] (first compound 5 µM), 0.119.
Consider NCI-H1792, for which the relative viability in test [1] (first compound 0.05 µM) was 0.517; in test [1] (first compound 0.1581 µM), 0.531; in test [1] (first compound 0.5 µM), 0.301; in test [1] (first compound 1.581 µM), 0.216; in test [1] (first compound 5 µM), 0.148; in test [3] (first compound 0.05 µM), 0.815. Also, the relative viability was 0.661 in test [3] (first compound 0.1581 µM); 0.315 in test [3] (first compound 0.5 µM); 0.269 in test [3] (first compound 1.581 µM); 0.251 in test [3] (first compound 5 µM); 1.05 in test [4] (first compound 0.05 µM); 0.937 in test [4] (first compound 0.1581 µM). For the same cell line, the results for the relative viability in test [4] (first compound 0.5 µM), in test [4] (first compound 1.581 µM) and in test [4] (first compound 5 µM) were 0.752, 0.459 and 0.0845, respectively.
For NCI-H1703, the relative viability in test [1] (first compound 0.05 µM) worked out at 0.721; in test [1] (first compound 0.1581 µM), 0.992; in test [1] (first compound 0.5 µM), 0.205; in test [1] (first compound 1.581 µM), 0.143; in test [1] (first compound 5 µM), 0.078; in test [4] (first compound 0.05 µM), 0.962. Further, the relative viability in test [4] (first compound 0.1581 µM) stood at 0.813; in test [4] (first compound 0.5 µM) it was 0.144; in test [4] (first compound 1.581 µM), 0.117; in test [4] (first compound 5 µM) it was 0.206.
Take NCI-H2342: the relative viability in test [2] (first compound 0.05 µM) worked out at 0.611; in test [2] (first compound 0.1581 µM) it was 0.54; in test [2] (first compound 0.5 µM), 0.333; in test [2] (first compound 1.581 µM), 0.334; in test [2] (first compound 5 µM) it was 0.337; in test [3] (first compound 0.05 µM), 0.614. Moreover, the relative viability in test [3] (first compound 0.1581 µM) is 0.579; in test [3] (first compound 0.5 µM) it was 0.56; in test [3] (first compound 1.581 µM), 0.416; in test [3] (first compound 5 µM) it was 0.375.
As to CAL-12T, the relative viability in test [1] (first compound 0.05 µM) was found to be 0.775; in test [1] (first compound 0.1581 µM) it was 0.746; in test [1] (first compound 0.5 µM), 0.423; in test [1] (first compound 1.581 µM), 0.246; in test [1] (first compound 5 µM), 0.228; in test [2] (first compound 0.05 µM), 0.316. Also, the relative viability came to 0.26 in test [2] (first compound 0.1581 µM); 0.208 in test [2] (first compound 0.5 µM); 0.164 in test [2] (first compound 1.581 µM); 0.2 in test [2] (first compound 5 µM); 0.535 in test [3] (first compound 0.05 µM); 0.411 in test [3] (first compound 0.1581 µM). The relative viability in test [3] (first compound 0.5 µM) worked out at 0.149; in test [3] (first compound 1.581 µM) it was 0.129; in test [3] (first compound 5 µM) it was 0.141; in test [4] (first compound 0.05 µM), 0.705; in test [4] (first compound 0.1581 µM), 0.377; in test [4] (first compound 0.5 µM), 0.207. The relative viability stood at 0.126 in test [4] (first compound 1.581 µM) and 0.124 in test [4] (first compound 5 µM).
Turning to NCI-H838, the relative viability in test [1] (first compound 0.05 µM) stood at 1.15; in test [1] (first compound 0.1581 µM), 1.04; in test [1] (first compound 0.5 µM), 0.873; in test [1] (first compound 1.581 µM) it was 0.178; in test [1] (first compound 5 µM), 0.105; in test [2] (first compound 0.05 µM), 0.245. For the same cell line, the relative viability was 0.258 in test [2] (first compound 0.1581 µM); 0.189 in test [2] (first compound 0.5 µM); 0.25 in test [2] (first compound 1.581 µM); 0.204 in test [2] (first compound 5 µM); 0.385 in test [3] (first compound 0.05 µM); 0.424 in test [3] (first compound 0.1581 µM). Besides, the relative viability in test [3] (first compound 0.5 µM) came out at 0.292; in test [3] (first compound 1.581 µM) it was 0.231; in test [3] (first compound 5 µM), 0.123; in test [4] (first compound 0.05 µM) it was 1.02; in test [4] (first compound 0.1581 µM), 0.932; in test [4] (first compound 0.5 µM), 0.492. Also, the relative viability in test [4] (first compound 1.581 µM) was determined as 0.124; in test [4] (first compound 5 µM), 0.111.
